9 molecules from paper PMC11648835 (Chemmedchem, 2024) can be followed below.

The test system of assay [1] is Mycobacterium tuberculosis mc^26206 (WT). The class given is cell-based.
The subject of assay [2] is Mtb-infected human THP-1 macrophages. The class given is cell-based, Mycobacterium tuberculosis.
Assay [3] has as its system Mtb strain mc^26206 wild-type, hypoxic non-replicating. The class given is cell-based, Mycobacterium tuberculosis.
Assay [4] relates to panel of bacteria consisting of S. aureus, E. faecium, E. coli, K. pneumoniae, A. baumannii and P. aeruginosa. In kind it is cell-based.

SMILES strings stand for the structures. Entries after “also recorded” stand apart in the source; their conditions may differ.

With `O=c1ccc2nc3ccc(OCC4(CO)COC4)cc3oc-2c1` [Compound 6y, 7‐((3‐(Hydroxymethyl)oxetan‐3‐yl)methoxy)‐3H‐phenoxazin‐3‐one], in assay [1], the “anti-tuberculosis activity against wild type Mtb (in words)” value is “completely inactive”.

With `COCCOc1ccc2nc3ccc(=O)cc-3oc2c1` [Compound 6i, 7‐(2‐Methoxyethoxy)‐3H‐phenoxazin‐3‐one], in assay [2], the “intracellular Mtb survival” value is recorded as “approximately 10%” and the “intracellular anti-tuberculosis activity (in words)” value was “intracellular TB killing”.

In the case of `O=c1ccc2nc3ccc(OCCO)cc3oc-2c1` [Compound 6s, 7‐(2‐Hydroxyethoxy)‐3H‐phenoxazin‐3‐one], the “anti-tuberculosis activity against wild type Mtb (in words)” value in assay [1] is “completely inactive”.

As for `COc1ccc2nc3ccc(=O)cc-3oc2c1` [Compound 6j, 7‐Methoxy‐3H‐phenoxazin‐3‐one], the “time-kill kinetic assay under hypoxia (in words)” value in assay [3] was “inactive”.

For the molecule `O=c1ccc2nc3ccc(OCc4ccc([N+](=O)[O-])cc4)cc3oc-2c1` [Compound 6b, 7‐((4‐Nitrobenzyl)oxy)‐3H‐phenoxazin‐3‐one], in assay [1], the “MIC90 Mtb WT” value is over 256 µM and the “anti-tuberculosis activity against wild type Mtb (in words)” value is “no anti‐tuberculosis activity”.

As for `COCOc1ccc2nc3ccc(=O)c(I)c-3oc2c1` [Compound 8h, 4‐Iodo‐7‐(methoxymethoxy)‐3H‐phenoxazin‐3‐one], the “intracellular anti-tuberculosis activity (in words)” value in assay [2] is reported as “intracellular TB killing”.

In the case of `O=c1ccc2nc3ccc(O)cc3oc-2c1` [Compound 2, resorufin, reference compound], in assay [1], the “anti-tuberculosis activity against wild type Mtb (in words)” value was “no anti‐tuberculosis activity; also recorded: inactive”. The “activity against a panel of bacteria (in words)” value in assay [4] is “inactive”.

`O=c1ccc2nc3ccc(OCc4ccc([N+](=O)[O-])o4)cc3oc-2c1` [Compound 1, 7‐((5‐Nitrofuran‐2‐yl)methoxy)‐3H‐phenoxazin‐3‐one]: the “activity against a panel of bacteria (in words)” value in assay [4] was “inactive”. Also, in assay [3], the “time-kill kinetic assay under hypoxia (in words)” value is “inactive”. Also, the “intracellular anti-tuberculosis activity (in words)” value in assay [2] is “intracellular TB killing”.

Take `O=c1ccc2nc3ccc(OCc4ccccc4)cc3oc-2c1` [Compound 6g, 7‐(Benzyloxy)‐3H‐phenoxazin‐3‐one]: the “anti-tuberculosis activity against wild type Mtb (in words)” value in assay [1] is “no anti‐tuberculosis activity”.
